Data published in patent US5026729A, “Lipoxygenase inhibiting compounds” (Abbott Laboratories, priority 1989, dated 1991).

How the values were obtained:
[1] = target: T1, 5-Lipoxygenase (Homo sapiens, UniProt P09917); assay: 5-Lipoxygenase inhibitory activity in vitro; type: biochemical
T1 sequence (P09917 1-674): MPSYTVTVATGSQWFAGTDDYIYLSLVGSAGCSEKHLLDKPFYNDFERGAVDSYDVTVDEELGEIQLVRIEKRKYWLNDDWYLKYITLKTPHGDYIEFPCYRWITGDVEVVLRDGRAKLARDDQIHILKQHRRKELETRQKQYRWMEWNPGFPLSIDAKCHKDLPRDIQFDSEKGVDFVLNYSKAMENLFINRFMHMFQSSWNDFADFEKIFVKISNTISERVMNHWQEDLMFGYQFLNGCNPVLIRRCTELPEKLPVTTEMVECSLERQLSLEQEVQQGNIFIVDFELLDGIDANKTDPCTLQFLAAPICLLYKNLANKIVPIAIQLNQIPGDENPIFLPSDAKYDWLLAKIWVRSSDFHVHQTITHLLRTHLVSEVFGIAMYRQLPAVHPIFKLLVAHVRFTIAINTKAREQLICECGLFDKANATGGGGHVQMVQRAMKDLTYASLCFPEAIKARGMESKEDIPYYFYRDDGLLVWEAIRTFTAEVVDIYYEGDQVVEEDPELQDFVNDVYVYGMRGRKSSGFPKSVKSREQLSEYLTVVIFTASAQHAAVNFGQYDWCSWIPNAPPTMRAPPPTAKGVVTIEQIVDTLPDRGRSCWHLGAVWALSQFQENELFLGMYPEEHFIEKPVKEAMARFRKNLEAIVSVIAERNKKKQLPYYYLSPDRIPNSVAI

[2] = Determination of plasma half-life after intravenous injection in rats; type: in vivo; settings: 1.7 mL/kg solution via jugular cannula, HPLC, elimination phase; for half-life: rat, plasma, read-out: Plasma Halflife (converted)
Experimental: Rats were injected intravenously with a 1.7 mL/kg solution of test compound through a jugular cannula. Multiple blood samples were collected from the lateral tail vein using heparinized capillary tubes. Plasma was obtained by centrifugation and precipitation of proteins by 2 volumes of methanol was followed by centrifugation at 12000×G for 10 min. The supernatant was analyzed by HPLC using a C18 Adsorbosphere 7μm column and eluted with a mobile phase of varying amounts of acetonitrile and aqueous 8mM triethylamine acetate and 10mM acetohydroxamic acid with a flow rate of about 1mL/min and detection by UV spectroscopy. The quantitation of compounds was calculated using external standards. The halflife of a test compound was determined from the elimination phase of a graph of the log of the plasma concentration versus time.

| Structure (SMILES) | IC50 [1] [nM] | half-life [2] [h] | Plasma Halflife [2] | inhibition at 0.78 µM ([1]; 0.78 μM, read-out: 5-Lipoxygenase Inhibitory Activity (percent inhibition)) [%] | inhibition at 0.39 µM ([1]; 0.39 μM, read-out: 5-Lipoxygenase Inhibitory Activity (percent inhibition)) [%] |
| --- | --- | --- | --- | --- | --- |
| Cc1cc(C(C)N(O)C(N)=O)ccc1OCc1ccccc1 (stereo not drawn) [A] | 100 | 2.7 | – | – | – |
| Cc1cc(OCc2ccccc2)ccc1C(C)N(O)C(N)=O (stereo not drawn) [B] | 400 | 0.6 | – | – | – |
| CC(=O)N(O)C(C)c1ccc(OCc2ccc(F)cc2)cc1 (stereo not drawn) [C] | 500 | 5.6 | – | – | – |
| CC(c1ccc(OCc2ccc(F)cc2)cc1)N(O)C(N)=O (stereo not drawn) [D] | 400 | – | biphasic | – | – |
| CC(=O)N(O)C(C)c1ccc(OCc2ccc(Cl)cc2)cc1 (stereo not drawn) [E] | – | 1.4 | – | 91 | – |
| Cc1cc(C(C)N(O)C(N)=O)ccc1OC(C)c1ccccc1 (stereo not drawn) [Example 3, N-hydroxy-N-[1-(4-(1-phenylethoxy)-3-methylphenyl)ethyl]urea] | 200 | 5.3 | – | – | – |
| Cc1cc(OC(C)c2ccccc2)ccc1C(C)N(O)C(N)=O (stereo not drawn) [Example 4, N-hydroxy-N-[1-(4-(1-phenylethoxy)-2-methylphenyl)ethyl]urea] | 50 | 1.2 | – | – | – |
| CC(=O)N(O)C(C)c1ccc(OC(C)c2ccc(F)cc2)cc1 (stereo not drawn) [Example 31, N-Hydroxy-N-(1-(4-(1-(4-fluorophenyl)ethoxy)-phenyl)ethyl]acetamide] | 500 | 12.4 | – | – | – |
| CC(Oc1ccc(C(C)N(O)C(N)=O)cc1)c1ccc(F)cc1 (stereo not drawn) [Example 32] | 300 | 7.2 | – | – | – |
| CC(=O)N(O)C(C)c1ccc(OC(C)c2ccc(Cl)cc2)cc1 (stereo not drawn) [Example 33] | 600 | 5.7 | – | – | – |
| CC(Oc1ccc(C(C)N(O)C(N)=O)cc1)c1ccc(Cl)cc1 (stereo not drawn) [Example 34, N-hydroxy-N-[1-(4-(1-(4-chlorophenyl)ethoxy)-phenyl)ethyl]urea] | 200 | 7.8 | – | – | – |
| CC(c1ccc(OCc2ccc(Cl)cc2)cc1)N(O)C(N)=O (stereo not drawn) [F] | – | 4.6 | – | – | 72 |
